Values of other authors, collected in patent US7981858B1, “Methods of using zinc containing compounds to improve ocular health” (Alcon, Inc., priority 2004, dated 2011).

Experiments:
[1] = 80 mg of zinc, versus placebo
[2] = about 200 mg dosage of zinc per day

## [Zn] [zinc]
[1]
  retarding macular degeneration changes: significantly better than placebo
[2]
  tolerability: well tolerated
[2]; anemia attributable to copper deficiency
  side effects: potential side effects such as anemia
